Reference: paper PMC12074917, “Molecular pharmacokinetic mechanism of JBP485 against aristolochic acid I (AAI) -induced nephrotoxicity” (Frontiers in Pharmacology, 2025)

What was measured:
[1] = In vivo renal clearance / pharmacokinetics of AAI after intravenous administration with or without JBP485; parameters: species or system rat; conditions: rats, i.v.
Method: Rats were randomly assigned to an AAI (4 mg/kg) group or an AAI (4 mg/kg) + JBP485 (50 mg/kg) group (n = 5 per group). The drugs were diluted in normal saline and administered intravenously via the left jugular vein. Subsequently, blood samples (0.2 mL) were collected via the right jugular vein with heparinized syringes at 1, 3, 5, 10, 30, 60, 120, 240, 360, and 480 min post-treatment. Isotonic saline solution (0.2 mL) was injected after each blood sample collection. Urine was collected directly from the bladder at 2, 4, 6, and 8 h after drug administration. AAI concentrations were measured by LC–MS/MS. Pharmacokinetic parameters, renal clearance (CLR), and cumulative urinary excretion were calculated.
(§1) The concentrations of the test compounds in plasma, urine, and cell lysates were determined using an Agilent HP1200 liquid chromatography system (Agilent Technology Inc., SC, CA, United States) and an API 3200 triple-quadrupole mass spectrometer (Applied Biosystems, SC, CA, United States). After protein precipitation using acetonitrile, the analyte was separated on a Hypersil BDS C18 column. The mobile phase consisted of acetonitrile and water containing 0.1% (v/v) formic acid (80:20, v/v). The flow rate was 0.4 mL/min. The mass spectrometer was equipped with an electrospray ionization (ESI) source. Data were acquired in positive ion mode and dynamic multiple reaction monitoring (MRM) mode. The ESI source conditions were as follows: ion spray voltage, 5.5 kV; ion source temperature, 600°C; Gas source 1 (GS1, N2) pressure, 50 psi; Gas source 2 (GS2, N2) pressure, 60 psi; curtain gas (CUR) pressure, 12 psi; and collision gas (CAD) pressure, 10 psi. EP and CXP were set at […] for all analytes. The scan range was m/z 359.9→298.1 for AAI and m/z 130.0→71.2 for IS (Internal Standard, metformin). […] Intra- and inter-day precision was lower than 4.5% with reference to relative standard deviation, while accuracy was within ±6.5% in terms of relative error for analytes. Analyst software (version 1.4.1) was used for equipment control and data acquisition and analysis.

NRK-52E cells [2] = assay: CCK-8 cell viability assay; assay type: cell-based, rat
Method: AAI was prepared to make a series of working dilutions in serum-free DMEM. The NRK-52E cells were plated in 96-well plates at a density of 5 ×10^4 cells/mL for 24 h at 37 °C and then challenged with various concentrations of AAI (0, 1, 2, 4, 8, 16, 32, 64, 128 and 256 μM). Cell viability was assessed using the CCK-8 assay.
NRK-52E cells were seeded in 96-well plates at a density of 5 × 10^4 cells/mL and incubated for 24 h at 37 °C. Following pretreatment with various concentrations of JBP485 (7.8125, 15.625, 31.25, 62.5, 125, and 250 μM) for 2.5 h, the cells were challenged with AAI (11 μM) for 24 h. Cell viability was subsequently assayed using a CCK-8 kit.

NRK-52E cells [3] = assay: Intracellular ROS level by DCFH-DA flow cytometry; assay type: cell-based, rat
Method: NRK-52E cells were plated in 6-well culture plates at a density of 5 ×10^4 cells/mL and treated with various concentrations of JBP485 (62.5, 125 and 250 μM) for 2.5 h. After challenge with AAI (11 μM) for 24 h, the cells were harvested and resuspended in 500 μL of DCFH-DA (10 μM) for the detection of ROS by flow cytometry (Becton Dickinson, United States) (Aagaard et al., 2014).

hOAT1 = target: T1, hOAT1 (Homo sapiens, UniProt Q4U2R8); assay: Uptake of AAI by hOAT1-transfected HEK293 cells with or without JBP485; assay type: cell-based
T1 construct: expressed in transfected cells; host or cells: HEK293
T1 sequence (Q4U2R8 1-563): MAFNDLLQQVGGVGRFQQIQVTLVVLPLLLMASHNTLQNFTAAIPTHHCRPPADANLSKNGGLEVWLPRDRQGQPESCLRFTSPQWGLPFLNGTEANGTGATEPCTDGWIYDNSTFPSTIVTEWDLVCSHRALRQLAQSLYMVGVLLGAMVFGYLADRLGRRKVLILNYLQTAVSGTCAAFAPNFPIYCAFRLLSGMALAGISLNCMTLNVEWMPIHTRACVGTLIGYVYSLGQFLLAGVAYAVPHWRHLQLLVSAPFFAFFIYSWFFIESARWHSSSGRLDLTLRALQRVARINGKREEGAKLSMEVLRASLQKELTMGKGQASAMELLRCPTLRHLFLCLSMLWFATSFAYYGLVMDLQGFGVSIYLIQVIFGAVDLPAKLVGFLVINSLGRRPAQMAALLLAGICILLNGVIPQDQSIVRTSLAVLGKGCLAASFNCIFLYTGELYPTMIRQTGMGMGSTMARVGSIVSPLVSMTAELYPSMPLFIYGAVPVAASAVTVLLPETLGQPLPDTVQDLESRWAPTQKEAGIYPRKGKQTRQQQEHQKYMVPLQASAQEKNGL
Method: Uptake experiments with hOAT1/3-HEK293 cells were performed as previously described ([Zhu et al., 2020]). Uptake was initiated by adding transport buffer (1 mL) with AAI (1 μM) and/or JBP485 (500 μM) after the cells were washed twice and incubated with transport buffer at 37°C. Moreover, the concentration-dependent uptake of AAI and the effects of JBP485 on AAI uptake were examined. Uptake was terminated upon the removal of the medium. The cells were washed three times with 1 mL of ice-cold Hanks’ balanced salt solution, lysed with 0.3 mL of 0.1% (v/v) Triton X-100, and then transferred to a polythene tube for quantification by LC-MS/MS. The protein level was measured using the BCA method (Solarbio, Beijing, China) with bovine serum albumin serving as the standard.
as §1

[4] = AAI 4 mg/kg with or without JBP485 50 mg/kg, n = 5

Structure (SMILES) | cumulative urinary excretion of AAI over 8 h ([1]; co-treatment with JBP485 50 mg/kg vs AAI 4 mg/kg alone) | AAI plasma concentrations ([1]; concurrent JBP485 50 mg/kg vs AAI 4 mg/kg alone) | survival rates of NRK-52E cells challenged with AAI (NRK-52E cells [2]; JBP485 7.8125-250 μM pretreatment 2.5 h, AAI 11 μM 24 h) | toxicity against NRK-52E cells (NRK-52E cells [2]; JBP485 alone, concentrations up to 256 μM) | ROS production in NRK-52E cells (NRK-52E cells [3]; JBP485 alone vs control) | AAI-induced rise in ROS production in NRK-52E cells (NRK-52E cells [3]; JBP485 co-administered with AAI 11 μM) | type of inhibition of AAI uptake (hOAT1; hOAT1-HEK293 cells, Km increased, Vmax unchanged) | IC50 (hOAT1; hOAT1-transfected HEK293 cells, substrate AAI, read-out: IC50 of inhibition of AAI uptake, OAT1) [µM] | AUC0-∞ of AAI [1, 4] [µg·min/L] | AUC(0-t) of AAI [1, 4] [µg·min/L] | CLR (renal clearance) of AAI [1, 4] [L/h/kg] | CLp (plasma clearance) of AAI [1, 4] [L/h/kg] | Vd of AAI [1, 4] [L/kg] | t1/2β of AAI [1, 4] [h] | concentration at which proliferation of NRK-52E cells is significantly inhibited (as low as) (NRK-52E cells [2]; CCK-8) [nM] | IC50 (NRK-52E cells [2]; CCK-8, read-out: IC50 for NRK-52E cells (cytotoxicity)) [µM] | ROS generation in NRK-52E cells (NRK-52E cells [3]; AAI alone 11 μM 24 h vs control) | Km (hOAT1; hOAT1-HEK293 cells, with or without JBP485, Eadie-Hofstee, n = 3) [µM] | Vmax of AAI uptake (hOAT1; hOAT1-HEK293 cells, with or without JBP485, n = 3) [nmol/mg protein/1min]
O=C1N[C@@H](CO)C(=O)N2C[C@H](O)C[C@@H]12 (relative stereo) [JBP485, cyclo-trans-4-L-hydroxyprolyl-L-serine] | reduction | significantly increased | dose-dependently increased | no JBP485-related toxicity | did not alter | significantly attenuated | competitive inhibition | 89.8 ± 12.3 |  |  |  |  |  |  |  |  |  |  | 
COc1cccc2c1cc([N+](=O)[O-])c1c(C(=O)O)cc3c(c12)OCO3 [AAI, Aristolochic Acid I] |  |  |  |  |  |  |  |  | 536.2 ± 14.3 | 496.0 ± 14.5 | 74.4 ± 5.4 | 450 ± 12 | 232.9 ± 13.0 | 1.61 ± 0.107 | 2000 | 11 | significant increase | 15.7 ± 0.4 | 0.141 ± 0.04
